Several values for one entry are separate records, joined by “and”; a condition that tells them apart may be missing. Equal entries are not always repeated.
Experiments:
rat kidney [1] = test: Kim-1 in rat urine after a single oral dose (ELISA); format: in vivo, Sprague–Dawley rats; conditions: for KIM-1: single oral dose
Experimental: (§1) The blood samples were taken 24 h after the administration of a single oral dose in each group. The samples were promptly centrifuged, and the biochemical parameters, including the levels of ALT, AST, BUN, Cr, and NAG, were then measured. The level of Kim-1 was measured in collected urine samples according to the kit instructions.

rat kidney [2] = test: Renal functional markers (BUN, Cr, NAG) in rats after a single oral dose; conditions: for BUN / Cr / NAG: rats, single oral dose
Experimental: ABT, a broad-spectrum nonspecific CYP inhibitor, was selected as a positive control inhibitor of CYP enzymes. Aristolochic acid A (AA I) was selected as the nephrotoxicity positive control in the study.
The samples were promptly centrifuged, and the biochemical parameters, including the levels of ALT, AST, BUN, Cr, and NAG, were then measured. The level of Kim-1 was measured in collected urine samples according to the kit instructions.

rat liver = test: Hepatic functional markers (ALT, AST) in rats after a single oral dose; format: in vivo, Sprague–Dawley rats; conditions: 24 h after single oral dose, mg/kg: AA I 70, BAK 200, ABT 100, GA 100, combinations 200+100
Experimental: as §1

[3] = individual animals (Fig. 3 data)
[4] = rat, 24 h after single oral dose, vs vehicle control

With `COc1cccc2c1cc([N+](=O)[O-])c1c(C(=O)O)cc3c(c12)OCO3` [AA I, Aristolochic acid A] the “Kim-1 level (in words)” value (rat kidney [1]; after single oral dose, vs vehicle control) was “significantly increased”, the KIM-1 (rat kidney [1]; group Mean (Fig. 3 data)) was 1538.00 pg/mL and the KIM-1 (rat kidney [1]; [3]) was 804.00 pg/mL and 2994.00 pg/mL and 624.00 pg/mL and 2464.00 pg/mL. For the same compound, the “BUN level (in words)” value (rat kidney [2]; [4]) was “significantly increased”, the “Cr level (in words)” value (rat kidney [2]; [4]) was “significantly increased” and the “NAG level (in words)” value (rat kidney [2]; [4]) was “significantly increased”. It also gave a BUN (rat kidney [2]; group Mean (Fig. 3 data)) of 6.405 mmol/L, a Cr (rat kidney [2]; group Mean (Fig. 3 data)) of 367.877 µmol/L and an NAG (rat kidney [2]; group Mean (Fig. 3 data)) of 42.409 IU/L. The BUN (rat kidney [2]; [3]) was 5.797 mmol/L and 6.023 mmol/L and 6.135 mmol/L and 7.373 mmol/L and 6.698 mmol/L, the Cr (rat kidney [2]; [3]) was 298.782 µmol/L and 308.970 µmol/L and 369.706 µmol/L and 567.416 µmol/L and 294.508 µmol/L and the NAG (rat kidney [2]; [3]) was 23.912 IU/L and 43.077 IU/L and 48.176 IU/L and 27.429 IU/L and 69.451 IU/L. For the same compound, the “ALT (IU/L)” value (rat liver) was 41.91±3.40 IU/L and the “AST (IU/L)” value (rat liver) was 29.08±8.01 IU/L.

— article PMC5126668 (PeerJ, 2016)
